According to patent US11572296B1, “Method for extending time of activity of chlorite-based biocides” (priority 2020, dated 2023):

Legend:
bacteria [1] = assay: Antimicrobial activity of oxychloro species (general properties); conditions: treated water, component of the formulation
From the text: The potency and longevity of biocidal activity for this formulation is controlled by varying the ratios of chlorate and acid which provide different profiles of the antimicrobial activities.

bacteria [2] = conditions: properties of oxychloro species; cited from earlier work

Molecule | time range of antimicrobial impact / longevity (bacteria [1]) | Biocidal potency (bacteria [2])
sodium chlorite | hours to days | –
[O-][Cl+2]([O-])O [ClO3^−, Chlorate ion] | – | low
[Na+].[O-][Cl+2]([O-])[O-] [sodium chlorate] | weeks to months | –
Chlorine dioxide [ClO2] | within seconds | –
